# Tested on: mdx mice
# Test: Dosing of metabolic and endocrine biomarkers in serum and tissues, mdx mice, 4-week daily or weekly prednisone
# Type: in vivo
# Conditions: 4-week treatment, mean ± s.e.m
# Experimental: Animal handling and steroid regimens. Mice were housed in a pathogen-free dedicated vivarium in accordance with Institutional Animal Care and Use Committee (IACUC) guidelines. Euthanasia was performed through carbon dioxide inhalation followed by cervical dislocation and heart removal. All methods using living animals in this study were performed in ethical accordance with the American Veterinary Medical Association (AVMA) and under protocols fully approved by both the Institutional Animal Care and Use Committee (IACUC) at Northwestern University Feinberg School of Medicine (protocol number ISO00000761). Consistent with the ethical approvals, all efforts were made to minimize suffering. Mice were fed ad libitum with Mouse Breeder Sterilizable Diet (#7904; Harlan Teklad, Indianapolis, Ind.) and maintained on a 12-hour light/dark cycle. mdx mice from the DBA/2J background were obtained from the Jackson Laboratory (Bar Harbor, Me.; stock #013141) and interbred. Male mice were used for reported experiments. Age at start was approximately 6 months for short-term experiments, approximately 6 weeks for long-term experiments. Dysferlin-null (Dysf-null) mice from the 129T2/SvEmsJ background were previously characterized (Demonbreun et al., 2011; Demonbreun et al., 2014). Age at start was approximately 9 months for long-term experiments. For experiments with Dysf-null and wildtype mice, both females and males (approximately 1:1 ratio) were randomized in treatment groups. […] Dosing was based on weekly weight measurements (1 mg/kg body weight, (Sali et al., 2012)) in 100 μl total PBS volume per dose. […] On injection days, stock solutions stored at −20° C. were diluted into sterile Eppendorf tubes containing sterile phosphate buffered saline (PBS) (#14190; Thermo Fisher, Waltham, Mass.). Puromycin (cat #A1113803, Thermo Scientific, Waltham, Mass.) was administered i.p. as 0.040 μmol/body g, and tissues were snap-frozen 30 minutes after injection. Sterile BD Micro-Fine IV Insulin Syringes (#14-829-1A; Fisher Scientific, Waltham, Mass.) were used to inject the intraperitoneal cavity of non-sedated animals. All animal analyses both during treatment and at endpoint were conducted blinded to treatment groups.
# Dosing of metabolic and endocrine biomarkers. Glycogen was quantitated using the Glycogen Assay Kit (#ab65620; Abcam, Cambridge, Mass.) from approximately 25 mg frozen-pulverized whole tissue, following manufacturer's instructions and internal standards for calculating μg/mg values. For measurement of whole-tissue ATP/NAD^+ levels, approximately 25 mg frozen-pulverized tissue was extracted in 10% perchloric acid and neutralized in 0.75 M K2CO3, as previously described (Ramsey et al., 2009). NAD+ and ATP were measured by high-pressure liquid chromatography (HPLC) with Shimadzu LC-20A pump (Shimadzu Scientific Instr Inc, Addison, Ill.) and UV-VIS detector, using a Supelco LC-18-T column (15 cm×[…]; #58970-U; Millipore-Sigma, St Louis, Mo.). […] ATP and NAD^+ eluted as sharp peaks at 3 and 14 minutes, respectively, and were normalized to tissue weight of frozen liver tissue for calculating pmol/mg values. Corticosterone was measured in mouse serum and cortisol was measured in human serum using dedicated ELISA kits (#ADI-900-097, Enzo Life Science, Farmingdale, N.Y.; #K7430-100, BioVision, Milpitas, Calif.) according to manufacturer's instructions and internal standards to calculate ng/ml values. Insulin levels were quantitated in mouse and human serum with species-specific ELISA kits (#10-1247-01 (mouse-specific); #10-1113-01 (human-specific); Mercodia, Uppsala, Sweden), following manufacturer's instructions and internal standards to calculate ng/ml values. Free fatty acids were quantitated using Enzychrom Free Fatty Acid Assay kit (#EFFA-100; BioAssay Systems, Hayward, Calif.), following kit's instructions and standards to calculate μM (serum) and nmol/mg (tissue) values. […]
compound,measurement,setting,value
"C[C@]12C=CC(=O)C=C1CC[C@@H]1[C@@H]2C(=O)C[C@@]2(C)[C@H]1CC[C@]2(O)C(=O)CO [prednisone, Prednisone]",serum insulin,daily prednisone 1 mg/kg i.p.,3.09 ± 0.14 ng/mL
same,serum BCAA,daily prednisone,657 ± 24.2 µM
same,serum corticosterone,daily prednisone,127 ± 5.34 ng/mL
same,serum free fatty acids,daily prednisone,546 ± 13.5 µM
same,serum β-hydroxybutyrate,daily prednisone,476 ± 4.81 µM
same,"tissue BCAA, diaphragm",daily prednisone,64 ± 3.09 nmol/mg
same,"tissue BCAA, heart",daily prednisone,2.38 ± 0.09 nmol/mg
same,"tissue BCAA, omental fat",daily prednisone,28.2 ± 0.99 nmol/mg
same,"tissue BCAA, quadriceps",daily prednisone,118 ± 2.74 nmol/mg
same,"tissue free fatty acids, diaphragm",daily prednisone,2.07 ± 0.09 nmol/mg
same,"tissue free fatty acids, heart",daily prednisone,0.86 ± 0.03 nmol/mg
same,"tissue free fatty acids, omental fat",daily prednisone,6.01 ± 0.3 nmol/mg
same,"tissue free fatty acids, quadriceps",daily prednisone,4.11 ± 0.11 nmol/mg
same,"tissue β-hydroxybutyrate, diaphragm",daily prednisone,28.4 ± 0.93 nmol/mg
same,"tissue β-hydroxybutyrate, heart",daily prednisone,24.6 ± 0.88 nmol/mg
same,"tissue β-hydroxybutyrate, omental fat",daily prednisone,58.8 ± 2.29 nmol/mg
same,"tissue β-hydroxybutyrate, quadriceps",daily prednisone,31.8 ± 0.48 nmol/mg
same,serum insulin,weekly prednisone 1 mg/kg i.p.,1.73 ± 0.07 ng/mL
same,serum BCAA,weekly prednisone,457 ± 14.1 µM
same,serum corticosterone,weekly prednisone,194 ± 5.05 ng/mL
same,serum free fatty acids,weekly prednisone,386 ± 17.3 µM
same,serum β-hydroxybutyrate,weekly prednisone,425 ± 4.92 µM
same,"tissue BCAA, diaphragm",weekly prednisone,43.8 ± 0.93 nmol/mg
same,"tissue BCAA, heart",weekly prednisone,1.65 ± 0.07 nmol/mg
same,"tissue BCAA, omental fat",weekly prednisone,18.1 ± 0.94 nmol/mg
same,"tissue BCAA, quadriceps",weekly prednisone,89.6 ± 3.06 nmol/mg
same,"tissue free fatty acids, diaphragm",weekly prednisone,1.11 ± 0.07 nmol/mg
same,"tissue free fatty acids, heart",weekly prednisone,0.44 ± 0.02 nmol/mg
same,"tissue free fatty acids, omental fat",weekly prednisone,4.35 ± 0.07 nmol/mg
same,"tissue free fatty acids, quadriceps",weekly prednisone,1.25 ± 0.07 nmol/mg
same,"tissue β-hydroxybutyrate, diaphragm",weekly prednisone,17.1 ± 0.77 nmol/mg
same,"tissue β-hydroxybutyrate, heart",weekly prednisone,16.5 ± 0.56 nmol/mg
same,"tissue β-hydroxybutyrate, omental fat",weekly prednisone,19 ± 0.39 nmol/mg
same,"tissue β-hydroxybutyrate, quadriceps",weekly prednisone,16.4 ± 1.48 nmol/mg

# — US20220062299A1, “USE OF GLUCOCORTICOID STEROIDS IN PREVENTING AND TREATING CONDITIONS OF MUSCLE WASTING, AGING AND METABOLIC DISORDER” (NORTHWESTERN UNIVERSITY, priority 2018, published 2022)
